# Patent US20040106135A1, “Assay for PPAR ligand dependent gene modulation” (priority 2002, published 2004)
# How the values were obtained:
# Assay type in all cases: cell-based, human
# LNCaP cells = assay: Transcriptional profiling by DNA microarray, LNCaP cells
# Description: (§1) Expression profiling: Expression profiling of RNA samples was performed essentially as described (Lockhart et al., (1996) Nat. Biotechnol. 14:1675-80) using the Affymetrix human U95Av2 array. Briefly, RNA was isolated from 100 mm cell culture dishes, DNased, and 15 μg used as a template for double stranded cDNA synthesis according to standard protocols (Invitrogen). Reverse transcription was primed using a T7-modified oligo-dT primer (5-[…]-d(T)24-3′) (SEQ ID NO: 1). In vitro transcription was then performed on each double stranded cDNA synthesis, according to the manufacturer's (Enzo Diagnostics) instructions. The resultant cRNA products were purified using RNeasy columns (Qiagen), pooled, and quantitated spectrophotometrically. For each sample, 20 μg of in vitro transcribed cRNA was fragmented by heating the sample to 94° C. in the presence of 40 mM Tris-acetate, pH 8.1, 100 mM potassium acetate, and 30 mM magnesium acetate. […]
# (§2) Data Analysis: Affymetrix CEL files from GeneChip 4.0 (Affymetrix) were imported into Resolver 2.0 under an empirically derived Affymetrix error model (Rosetta Inpharmatics). […] Accordingly, the statistical significance (P-value) of a given expression data point takes into account the underlying error associated with the Affymetrix transcript abundance measurements as determined by this platform-specific error model. […]
# Caki-1 cells = assay: Transcriptional profiling by DNA microarray, Caki-1 cells
# Description: as §1, §2
# HK-2 cells = assay: Transcriptional profiling by DNA microarray, HK-2 cells; settings: 300 nM GW9578, 24 hours
# Description: Points corresponding to PDK-4 and ADRP are highlighted in the plot. Points falling outside of the inner lines are changed by greater than 2-fold; those falling outside the outer lines by greater than 3-fold.
# as §1, with “spectrophotometrically.” for “spectrophotometrically. For each sample, 20 μg of in vitro transcribed cRNA was fragmented by heating the sample to 94° C. in the presence of 40 mM Tris-acetate, pH 8.1, 100 mM potassium acetate, and 30 mM magnesium acetate.”
# as §2
# [1] = tested on: ADRP mRNA in HK-2 cells (endogenous PPARα); assay: ADRP mRNA induction in HK-2 cells (real-time RT-PCR); settings: 100 nM GW9578
# Description: Values were normalized to 18S rRNA levels.
# Cell culture: The following cell lines were obtained from American Type Culture Collection (ATCC) and cultured in the recommended medium for each cell type: HepG2, HK-2, Caki-1, LNCaP (CloneFGC), SW872, and ACHN. PPARα compounds were prepared to a 500× stock in DMSO; corresponding control cells received an equal volume of vehicle (0.2% v/v).
# Real-time PCR: Fluorescence-based real-time PCR was performed essentially as described (Abbaszade et al., (1999) J. Biol. Chem. 274:23443-23450). […] Taqman-based real-time PCR expression profiling was performed using 25 ng of each cDNA according to the manufacturer's (PE Biosystems) instructions with fluorescence being monitored in real-time with an ABI Prism 7700 (PE Biosystems). Relative expression levels were determined essentially as described (Gibson et al., (1996) Genome Res. 6:995-1001) using standard curves for each transcript. Relative abundance was then determined from these standard curves, subtracting mRNA levels obtained from negative control reactions performed in the absence of reverse transcriptase, and normalized to 18S rRNA levels. […]
smiles,measurement,setting,value
"CCCCCCCN(CCc1ccc(SC(C)(C)C(=O)O)cc1)C(=O)Nc1ccc(F)cc1F [GW9578, ureido-thioisobutyric acid]",Changes in gene expression in LNCaP cells,LNCaP cells,only minor changes
same,Changes in gene expression in Caki-1 cells,Caki-1 cells,only minor changes
same,Increase of ADRP transcript versus controls,HK-2 cells,approximately 4 fold
same,Increase of PDK-4 transcript versus controls,HK-2 cells,approximately 4 fold
same,Time to near maximal increase of ADRP mRNA,[1],≤ 2 h
